Where “and” joins values, the source holds several entries; their conditions need not be identical. Identical values can stand only once.
Test system: miR-124 (miR-124-1, miR-124-2, miR-124-3 loci)
Assay: RNA CaptureSeq read counts at the miR-124 loci in PBMCs
Type: cell-based, human
Conditions: PBMCs treated with ABX464
Experimental: Total RNA was extracted from infected and uninfected PBMC samples using TRIzol reagent (Invitrogen) following the manufacturer's protocol. The RNA concentrations and purity were determined using the RNA 6000 Bioanalyzer kit (Agilent). For cDNA synthesis, 1 μg of total RNA was treated with DNase I (Invitrogen) and then utilized as a template for reverse transcription using the Verso cDNA kit with a blend of random hexamers and anchored oligo-dT (Thermo Scientific), according to the manufacturer's instructions. After KAPA Hyper Prep (ROCHE) library preparation from 1 μg total RNA, we proceeded with SeqCap EZ capture (ROCHE) following the manufacturer's recommendations. Hybrid selection was performed with a custom SeqCap EZ Choice Library (Roche NimbleGen) containing the following regions; chromosome 8 (9,760,617 to 9,761,780 and 65,285,285 to 65,296,944). chromosome 20 (61,797,549 to 61,812,855), chromosome 1 (1,102,000 to 1,106,000), chromosome 13 (92,000,074 to 92,006,833), chromosome 15 (22,512,831 to […]) and the genome of the HIV Ada8 strain. This library was designed through the NimbleDesign portal (v1.2.R1) using genome build hg19 NCBI Build 37.1/GRCh37. Sequencing was performed on a NextSeq 500 (Illumina) with 18 samples on a HighOutput Cartridge (2×400 million reads of 75 bases each).
miR-124 is encoded from three independent genes, miR-124-1, miR-124-2, and miR-124-3, located on human chromosomes 8 and 20 (FIG. 4A). To determine which of these genes is induced by ABX464, we employed targeted RNA CaptureSeq to assess the full depth of the transcriptome. […] The total number of reads for untreated as well as ABX464 treated samples varied between 2 and 30 million in infected and uninfected PBMCs (Table V). The number of reads from the three loci encoding miR-124 in the treated samples were 4- to 12-fold higher than in the untreated samples (FIG. 4B, Table V), confirming that ABX464 led to a large increase in miR-124. […]

In the case of `FC(F)(F)Oc1ccc(Nc2ccc3cccc(Cl)c3n2)cc1` [ABX464, 8-chloro-N-(4-(trifluoromethoxy)phenyl)quinolin-2-amine], the “read counts mir124.2” value (one value per donor library) was 704 and 4 and 4222 and 362 and 2326 and 5452, the “read counts mir124.3” value (one value per donor library) was 6439 and 701 and 21941 and 2542 and 14460 and 7772 and the “read counts mir124.1” value (one value per donor library (D1, D4-D8)) was 4014 and 7114 and 4748 and 324 and 2486 and 1088.
